One assay has as its system Girardi cells. The assay is described as follows: Mitochondrial depolarization inhibition, JC-1 fluorescence ratio, ouabain/KCl-induced depolarization (Example 1). The assay is classed as cell-based, human. The conditions noted are these: 1 mM ouabain + 60 mM KCl, 2 hr. The method, then: First of all, Girardi cells are seeded on a plate usable for an optical measurement method, and cultured in a normal medium (MEM medium supplemented with additives, such as non-essential amino acid, fetal bovine serum and the like). Then, the medium is changed to a normal medium containing JC-1 to allow incorporation of JC-1 into the cell, the medium is changed to a normal medium containing a test substance, and the cells are cultured. Then, a depolarization-inducing medium is used (normal medium containing ouabain and KCl; in the evaluation method of the present invention, ouabain is used at a concentration of 0.1 μM-3 mM, and KCl is used at a concentration of 20 mM-90 mM). The test substance may be added along with or after addition of a depolarization-inducing medium following incorporation of JC-1 into the cell. After addition of the depolarization-inducing medium, the culture time can be 1-24 hr. Thereafter, the fluorescence of JC-1 monomer and the fluorescence of J-aggregate are measured on a fluorescence plate reader (capable of excitation at around 488-490 nm, which is the excitation wavelength of JC-1, and capable of fluorescence detection around 527 nm, which is the fluorescence wavelength peak of JC-1 monomer and around 590-600 nm, which is the fluorescence wavelength of J-aggregate), and the fluorescence intensity ratio (monomer fluorescence intensity/J-aggregate fluorescence intensity) is calculated.
Girardi cells suspended in a normal medium [(MEM (GIBCO 11095-098) supplemented with 1% non-essential amino acid (MEM Non-Essential Amino Acids Solution 10 mM 100× GIBCO 11140-050), and 10% fetal bovine serum (BIOFLUIDS DIVISION Lot No. 302030))] were seeded to a 96-well clear bottom black plate (MATRIX MT4940) at 200 μL/well and cultured.
JC-1 (Molecular Probes T-3168, 1 mg/mL DMSO solution) was added to a phenol red-free normal medium [MEM (GIBCO 51200-038) supplemented with 1% non-essential amino acid (MEM Non-Essential Amino Acids Solution 10 mM 100× GIBCO 11140-050), 1% L-glutamine (L-Glutamine-200 mM 100×: GIBCO 25030-149) and 10% fetal bovine serum (BIOFLUIDS DIVISION: Lot No. 302030)] at 10 μL/mL, the mixture was stirred with a vortex mixer and centrifuged at 3000 rpm for 1 min and the supernatant was filtered through a syringe filter (0.22 μm, MILLIPORE). The medium in the 96-well plate was removed and the JC-1 solution was dispensed to a cell-seeded well at 50 μL/well. […]
After induction of depolarization, the plate was set on a fluorescence plate reader (TECAN, SpectraFluor) heated to 37° C., and the J-aggregate fluorescence was measured at 595 nm using an excitation wavelength of 485 nm. Then, the monomer fluorescence was measured at 535 nm using an excitation wavelength of 485 nm. […]

Assay [1] deals with Griardi cells. As to conditions: JC-1, flow cytometry; cited from earlier work. Background: A flow cytometer gives signals particle by particle.
In assay [2] the test system is Griardi cells. The conditions noted are these: 3 hr low oxygen with metabolism inhibitor, then 1 hr normal medium; cited from earlier work.

In the case of `CC1(C)Oc2ccc(C#N)cc2[C@H](N(Cc2ncc[nH]2)c2ccc(Cl)cc2)[C@H]1O` [BMS-191095], the “mitochondrial depolarization inhibitory action (fluorescence intensity ratio monomer/J-aggregate)” value in the assay on Girardi cells is on record as “mitochondrial depolarization inhibitory action”.

Regarding `N#CC(C#N)=NNc1cccc(Cl)c1` [CCCP], in the assay on Griardi cells [1], the “mitochondrial membrane potential (red fluorescence intensity of JC-1)” value was “decreased fluorescence intensity and depolarization of mitochondria were observed”.

In the case of `Nc1ncnc2c1ncn2[C@@H]1O[C@H](CO)[C@@H](O)[C@H]1O` [adenosine], the apoptosis result in the assay on Griardi cells [2] is given as “strongly inhibited apoptosis”.

Take `CC1=NS(=O)(=O)c2cc(Cl)ccc2N1` [diazoxide]: in the assay with Girardi cells, the “mitochondrial depolarization inhibitory action (fluorescence intensity ratio monomer/J-aggregate)” value was “mitochondrial depolarization inhibitory action”.

As to `COc1ccc([C@@H]2Sc3ccccc3N(CCN(C)C)C(=O)[C@@H]2OC(C)=O)cc1.Cl` [diltiazem, diltiazem hydrochloride], the “mitochondrial depolarization inhibitory action (fluorescence intensity ratio monomer/J-aggregate)” value with Girardi cells was “did not prevent mitochondrial depolarization”.

`CC1(C)Oc2ccc(C#N)cc2[C@@H](N2CCCC2=O)[C@@H]1O` [levcromakalim]: the “mitochondrial depolarization inhibitory action (fluorescence intensity ratio monomer/J-aggregate)” value in the assay with Girardi cells is given as “did not prevent mitochondrial depolarization”.

The record behind these values is US20070202486A1, “Method Of Assaying Substance Capable Of Changing Mitochondrial Membrane Potential” (Mitsubishi Pharma Corporation, priority 2004, published 2007).
